In patent US20090088380A1, “GHRH ANALOGS AND THERAPEUTIC USES THEREOF” (priority 2007, published 2009):
“And” between values parts separate entries of the source, which are not always exact repeats. Identical values can stand only once. Non-standard residues stand in square brackets, D forms with d. Residues, ends and D or L forms follow the SMILES beside them.

Columns and labels:
[1] = tested on: malnourished subjects with CKD; assay: Phase II CKD: vital signs; assay type: in vivo, human; details: for Diastolic blood pressure: mean (SD) / Heart rate: mean (SD) / Systolic blood pressure: mean (SD): Safety Analysis Set
Source text: Mean systolic blood pressure was lower at Day 28 compared with baseline in the GHRH(1-29)NH2 synthetic analog group but higher compared with baseline in the placebo group (Table 37). […] Similarly, mean diastolic blood pressure was lower at Day 28 compared with baseline in the GHRH(1-29)NH2 synthetic analog group but this was not part of a trend.

[2] = tested on: malnourished subjects with CKD; assay: Phase II CKD: dietary assessment (spontaneous nutrient intake); assay type: in vivo, human; details: ITT
Protocol: Dietary assessments were performed at the baseline visit and were repeated on Day 28. The subjects were asked to write down everything they ate and drank throughout the 3 days preceding the visit. The local dietician then calculated the mean amount of carbohydrates, fat and protein consumed by the subjects per day and calculated energy intake.

[3] = tested on: malnourished subjects with CKD; assay: Phase II CKD: abnormal findings on physical examination; assay type: in vivo, human; details: safety analysis set
Source text: There were no body systems in which there was a trend towards change in physical examination. Any physical examination findings after the screening visit were reported as AEs.

[4] = molecular target: T1, hGHRH(1-44)-NH2 binding sites in rat anterior pituitary (Rattus norvegicus, UniProt Q02644); assay: Relative binding affinity in rat anterior pituitary preparations, [125I-Tyr10]hGHRH(1-44)-NH2 radioligand; details: values compared to hGHRH(1-29)-NH2
T1 construct: from tissue; host or cells: anterior pituitary of 2-month old male Sprague Dawley rats
T1 sequence (Q02644 23-423 isoform Q02644-2 limits assumed): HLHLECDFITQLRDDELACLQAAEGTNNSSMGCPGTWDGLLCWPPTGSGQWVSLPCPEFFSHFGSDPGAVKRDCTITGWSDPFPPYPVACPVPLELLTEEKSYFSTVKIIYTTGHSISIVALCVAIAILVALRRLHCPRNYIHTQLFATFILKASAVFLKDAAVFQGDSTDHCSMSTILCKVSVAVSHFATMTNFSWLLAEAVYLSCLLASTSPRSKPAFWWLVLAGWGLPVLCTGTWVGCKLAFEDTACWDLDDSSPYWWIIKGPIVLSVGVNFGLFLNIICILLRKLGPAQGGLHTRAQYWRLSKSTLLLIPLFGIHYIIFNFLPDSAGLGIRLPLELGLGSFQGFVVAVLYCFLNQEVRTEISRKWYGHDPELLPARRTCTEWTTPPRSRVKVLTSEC
Source text: Initial selection of a candidate from the original 14 polysubstituted GHRH analogs described in the U.S. Pat. No. 5,854,216 was based upon in vitro data on receptor affinity in 2-month old male Sprague Dawley rat anterior pituitary preparations. The embodiments are based on the affinity of selected GHRH analogs for the human GHRH receptor (hGHRH-R) in baby hamster kidney (BHK) cells transfected with hGHRH-R, and on resistance to proteolysis in rat serum, human plasma or human serum. More precisely, the preferred drug candidates were selected, as compared to hGHRH(1-29)-NH2, for: i-their increased relative binding affinity to hGHRH(1-44)-NH2 binding sites in rat anterior pituitary in vitro as well as to hGHRH-R in BHK-expressing cells in vitro; and ii-their relative resistance to proteolysis in vitro.

[5] = Baseline, listed as GHRH(1-29)NH2 synthetic analog
[6] = Day 28, listed as GHRH(1-29)NH2 synthetic analog

Question: How did the “Mean systolic blood pressure” value ([1]; Day 7) turn out when CC[C@H](C)[C@H](NC(=O)[C@H](C)NC(=O)[C@H](CC(=O)O)NC(=O)[C@@H](C)NC(=O)[C@@H](N)Cc1ccc(O)cc1)C(=O)N[C@@H](Cc1ccccc1)C(=O)N[C@H](C(=O)N[C@@H](CC(N)=O)C(=O)N[C@@H](CO)C(=O)N[C@H](Cc1ccc(O)cc1)C(=O)N[C@@H](CCCNC(=N)N)C(=O)N[C@@H](CCCCN)C(=O)N[C@H](C(=O)N[C@@H](CC(C)C)C(=O)N[C@H](C)C(=O)N[C@@H](CCC(N)=O)C(=O)N[C@@H](CC(C)C)C(=O)N[C@@H](CO)C(=O)N[C@@H](C)C(=O)N[C@@H](CCCNC(=N)N)C(=O)N[C@@H](CCCCN)C(=O)N[C@@H](CCCCN)C(=O)N[C@@H](CC(C)C)C(=O)N[C@@H](CCC(N)=O)C(=O)N[C@@H](CC(=O)O)C(=O)N[C@H](C(=O)N[C@@H](CCSC)C(=O)N[C@@H](CO)C(=O)N[C@@H](CCCNC(=N)N)C(N)=O)[C@@H](C)CC)C(C)C)[C@@H](C)O [GHRH analog #5, [D-Ala^2, D-Tyr^10, D-Ala^15, Lys^22] hGHRH(1-29)-NH2] (H-Y[dA]DAIFTNS[dY]RKVL[dA]QLSARKKLQDIMSR-NH2) was run?
Answer: 136.4 mmHg

Question: What about the “Mean systolic blood pressure” value ([1]; Day 14) of the same compound?
Answer: 139.9 mmHg

Question: And the “Mean systolic blood pressure” value ([1]; Day 21)?
Answer: 143.1 mmHg

Question: What about the “Diastolic blood pressure: mean (SD)” value ([1]; Baseline) of the same compound?
Answer: 82.7 (10.9) mmHg

Question: And the “Heart rate: mean (SD)” value ([1]; Baseline)?
Answer: 77.7 (11.1) bpm

Question: What about the “Systolic blood pressure: mean (SD)” value ([1]; Baseline) of the same compound?
Answer: 144.8 (16.0) mmHg

Question: And the “Diastolic blood pressure: mean (SD)” value ([1]; Day 28)?
Answer: 76.7 (8.1) mmHg

Question: What about the “Heart rate: mean (SD)” value ([1]; Day 28) of the same compound?
Answer: 76.4 (9.8) bpm

Question: What about the “Systolic blood pressure: mean (SD)” value ([1]; Day 28) of the same compound?
Answer: 128.3 (16.5) mmHg

Question: What about the “Mean systolic blood pressure” value ([1]; screening) of the same compound?
Answer: 142.0 mmHg

Question: And the “Energy intake: mean (SD)” value ([2]; Baseline)?
Answer: 1654 kcal/day and 1654.45 (394.75) kcal/day

Question: And the “Protein intake: mean (SD)” value ([2]; Baseline)?
Answer: 62.46 g/day and 62.46 (17.71) g/day

Question: And the “Energy intake: mean (SD)” value [2, 5]?
Answer: 1654.5 kcal/day

Question: What about the “Protein intake: mean (SD)” value [2, 5] of the same compound?
Answer: 62.5 g/day

Question: What about the “Energy intake: mean (SD)” value ([2]; Day 28) of the same compound?
Answer: 1533 kcal/day and 1532.70 (384.52) kcal/day

Question: And the “Protein intake: mean (SD)” value ([2]; Day 28)?
Answer: 58.49 g/day and 58.49 (19.76) g/day

Question: What about the “Energy intake: mean (SD)” value [2, 6] of the same compound?
Answer: 1532.7 kcal/day

Question: What about the “Protein intake: mean (SD)” value [2, 6] of the same compound?
Answer: 58.5 g/day

Question: And the “Subjects with abnormal findings on physical examination: Cardiovascular (%)” value ([3]; Baseline)?
Answer: (46.2%)

Question: And the “Subjects with abnormal findings on physical examination: Central nervous system (%)” value ([3]; Baseline)?
Answer: (0.0%)

Question: And the “Subjects with abnormal findings on physical examination: Ear (%)” value ([3]; Baseline)?
Answer: (15.4%)

Question: And the “Subjects with abnormal findings on physical examination: Gastrointestinal (%)” value ([3]; Baseline)?
Answer: (30.8%)

Question: What about the “Subjects with abnormal findings on physical examination: Genitourinary (%)” value ([3]; Baseline) of the same compound?
Answer: (23.1%)

Question: And the “Subjects with abnormal findings on physical examination: Musculoskeletal (%)” value ([3]; Baseline)?
Answer: (53.8%)

Question: And the “Subjects with abnormal findings on physical examination: Nose and throat (%)” value ([3]; Baseline)?
Answer: (38.5%)

Question: And the “Subjects with abnormal findings on physical examination: Other (%)” value ([3]; Baseline)?
Answer: (23.1%)

Question: And the “Subjects with abnormal findings on physical examination: Respiratory (%)” value ([3]; Baseline)?
Answer: (0.0%)

Question: What about the “Subjects with abnormal findings on physical examination: Skin (%)” value ([3]; Baseline) of the same compound?
Answer: (69.2%)

Question: What about the “Subjects with abnormal findings on physical examination: Cardiovascular (%)” value ([3]; Day 28) of the same compound?
Answer: (25.0%)

Question: And the “Subjects with abnormal findings on physical examination: Central nervous system (%)” value ([3]; Day 28)?
Answer: (0.0%)

Question: And the “Subjects with abnormal findings on physical examination: Ear (%)” value ([3]; Day 28)?
Answer: (16.7%)

Question: And the “Subjects with abnormal findings on physical examination: Gastrointestinal (%)” value ([3]; Day 28)?
Answer: (41.7%)

Question: What about the “Subjects with abnormal findings on physical examination: Genitourinary (%)” value ([3]; Day 28) of the same compound?
Answer: (16.7%)

Question: What about the “Subjects with abnormal findings on physical examination: Musculoskeletal (%)” value ([3]; Day 28) of the same compound?
Answer: (50.0%)

Question: And the “Subjects with abnormal findings on physical examination: Nose and throat (%)” value ([3]; Day 28)?
Answer: (41.7%)

Question: And the “Subjects with abnormal findings on physical examination: Other (%)” value ([3]; Day 28)?
Answer: (41.7%)

Question: What about the “Subjects with abnormal findings on physical examination: Respiratory (%)” value ([3]; Day 28) of the same compound?
Answer: (8.3%)

Question: And the “Subjects with abnormal findings on physical examination: Skin (%)” value ([3]; Day 28)?
Answer: (75.0%)

Question: And the “Relative binding affinity in rat anterior pituitary” value [4]?
Answer: 1.04 ± 0.40
